Test results as given in patent US20230003717A1, “USE OF SYNAPTOTAGMIN-7 IN THE DIAGNOSIS AND TREATMENT OF BIPOLAR DISORDER” (TSINGHUA UNIVERSITY, priority 2020, published 2023).

Legend:
Format in all cases: in vivo
Syt7 KO mice [1] = assay: sucrose preference test (SPT), Syt7 KO mice; settings: 30 mg/kg intraperitoneal, night phase and day phase, vs untreated control
Experimental: (§1) Considering that the FST/TS tests can not represent all the characterizations of human disease, a learned helplessness (LH) test and a sucrose preference test (SPT) were conducted. LH is associated with depression. In the LH test, the escape failure number of mice is an indicator for determining the depression of animal due to external pressure. A higher escape failure number indicates a more significant depression. SPT is associated with anhedonia. The proportion of sucrose preference of the mice can serve as an indicator for determining the anhedonia severity of the mice. A higher proportion of sweet preference indicates an enhancement in hedonic feeling.
(§2) Then, the LH/SPT/LDB behavioral paradigms were adopted for detecting the effect of high-dose olanzapine treatment (1.0 mg/kg) on abnormal behaviors of the Syt7 KO mice.
(§3) The effect of clinical BD treatment lithium on behavioral abnormalities in Syt7 KO mice was then tested.

WT mice [2] = assay: forced swim test (FST), WT mice; settings: 30 mg/kg intraperitoneal, night phase and day phase
Experimental: (§4) The 11 genes in the DG region of the mice were knocked down using shRNA virus. The mice were subject to a forced swim test (FST), and the immobility time of the mice was analyzed. The immobility time is an indicator that reflects the feeling of despair of the mice, and a longer immobility time indicates a more serious feeling of despair. The result is shown in panel C in FIG. 1.
as §3

WT mice [3] = assay: learned helplessness (LH) test, WT mice; settings: 30 mg/kg intraperitoneal, night phase and day phase, vs untreated control
Experimental: as §1, §2, §3

WT mice [4] = assay: sucrose preference test (SPT), WT mice; settings: 30 mg/kg intraperitoneal, night phase and day phase, vs untreated control
Experimental: as §1, §2, §3

Syt7 KO mice [5] = assay: light-dark box (LDB) test, Syt7 KO mice; settings: 30 mg/kg intraperitoneal, night phase and day phase
Experimental: (§5) Since BD patients often had clinical symptoms of anxiety, a light-dark box (LDB) test was conducted to observe anxiety-like behaviors in the Syt7 KO mice.
as §2, §3

Syt7 KO mice [6] = assay: learned helplessness (LH) test, Syt7 KO mice; settings: 30 mg/kg intraperitoneal, night phase and day phase, vs untreated control
Experimental: as §1, §2, §3

WT mice [7] = assay: light-dark box (LDB) test, WT mice; settings: 30 mg/kg intraperitoneal
Experimental: as §5, §2, §3

Syt7 KO mice [8] = assay: forced swim test (FST), Syt7 KO mice; settings: 30 mg/kg intraperitoneal, night phase and day phase
Experimental: as §4
The behaviors of Syt7 KO mice (i.e., Syt7-knockout mice) were then examined in the FST test.
Syt7 KO mice were first treated with the atypical antipsychotic olanzapine (OLZ) and observed for the dose dependence (administered with doses of 0.2 mg/kg, 0.5 mg/kg and 1.0 mg/kg) (using ANOVA statistical method). […] Without being limited by theory, this may be associated with an antidepressant effect of olanzapine in treating BD patients.
as §3

## O=C([O-])[O-].[Li+].[Li+] [Li2CO3]
Syt7 KO mice [1]
  sucrose preference (SPT): decreased sucrose preference
WT mice [2]
  immobility time in FST: no effect
WT mice [3]
  escape numbers in LH test: increased escape numbers
WT mice [4]
  sucrose preference (SPT): decreased sucrose preference
Syt7 KO mice [5]
  time spent in the light compartment in the LDB test: reducing the time spent in the light compartment
Syt7 KO mice [6]
  escape numbers in LH test: increased escape numbers
WT mice [7]
  time spent in the light compartment in the LDB test: no effect on WT
Syt7 KO mice [8]
  immobility time in FST: no effect
